The text below walks through data of patent publication US20170121315A1, “HETEROBICYCLICALLY SUBSTITUTED 4-OXOBUTANE ACID DERIVATIVES AND USE THEREOF” (priority 2014, published 2017).

Broadly, the IC50 is the concentration that inhibits the measured activity by half.

Molecules are shown by their SMILES. Where only a bound is given, the exact number is not on record here.

Holding throughout (type): biochemical
One experiment concerns the target T1, MMP-2 (Homo sapiens, UniProt P08253).
T1 construct: purchased R&D Systems 902-MP
T1 sequence (P08253 110-660): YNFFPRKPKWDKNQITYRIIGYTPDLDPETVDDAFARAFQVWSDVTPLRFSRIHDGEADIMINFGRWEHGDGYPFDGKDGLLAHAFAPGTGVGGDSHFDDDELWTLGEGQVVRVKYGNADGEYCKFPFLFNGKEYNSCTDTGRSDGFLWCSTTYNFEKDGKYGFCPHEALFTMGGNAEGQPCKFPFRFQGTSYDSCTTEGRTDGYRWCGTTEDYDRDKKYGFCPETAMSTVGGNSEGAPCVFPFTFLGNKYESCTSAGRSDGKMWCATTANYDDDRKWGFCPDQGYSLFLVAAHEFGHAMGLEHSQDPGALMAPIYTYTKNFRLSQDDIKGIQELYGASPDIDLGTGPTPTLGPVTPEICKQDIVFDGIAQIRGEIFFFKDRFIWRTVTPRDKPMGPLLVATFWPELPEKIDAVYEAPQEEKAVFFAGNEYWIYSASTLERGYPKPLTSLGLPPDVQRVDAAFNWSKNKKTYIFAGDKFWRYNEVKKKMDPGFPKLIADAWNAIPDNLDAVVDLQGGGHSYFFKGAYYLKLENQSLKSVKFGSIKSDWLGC
The experiment is described as follows: In vitro MMP-2 inhibition test. To be noted: human MMP-2. From the text: (§1) The MMP-mediated amidolytic cleavage of a suitable peptide substrate leads to an increase in fluorescent light here too. The signal intensity of the fluorescent light is directly proportional to the enzyme activity. The active concentration of a test compound at which half the enzyme is inhibited (50% signal intensity of the fluorescent light) is reported as the IC50 value.
(§2) Recombinant MMP-2 (R&D Systems, 902-MP) is chemically activated in accordance with the manufacturer's instructions using APMA. 1 μl of the test compound to be analysed (as a solution in DMSO, suitable concentrations e.g. 1 nM to 30 μM) is pipetted into 24 μl of activated enzyme (final concentration e.g. 2 nM) in reaction buffer (50 mM Tris/HCl pH 7.5, 10 mM CaCl2, 150 mM NaCl, 0.05% Brij®-35) in a white 384-hole microtiter plate (MTP). The enzymatic reaction is started by adding the intramolecularly quenched Mca-Pro-Leu-Gly-Leu-Dpa(Dnp)-Ala-Arg-NH2 substrate (final concentration e.g. 10 μM; R&D Systems, ES-001), so as to result in a total test volume of 50 μl. The course of the MMP-2 reaction is measured by measuring the fluorescence intensity (excitation 320 nm, emission 410 nm) over a suitable period of time (e.g. over 120 min at a temperature of 32° C.).

A further experiment has as its target T2, MMP-9 (Homo sapiens, UniProt P14780).
T2 construct: purchased R&D Systems 911-MP
Put plainly: In vitro MMP-9 inhibition test. To be noted: human MMP-9.
Text: as §1
as §2, with “Recombinant MMP-9” for “Recombinant MMP-2”, “Systems, 911-MP)” for “Systems, 902-MP)”, “e.g. 0.1” for “e.g. 2”, “the MMP-9” for “the MMP-2”

A further experiment concerns the target T3, MMP-13 (Homo sapiens, UniProt P45452).
T3 construct: purchased R&D Systems 511-MP
The experiment is described as follows: In vitro MMP-13 inhibition test. To be noted: human MMP-13.
Text: as §1
as §2, with “Recombinant MMP-13” for “Recombinant MMP-2”, “Systems, 511-MP)” for “Systems, 902-MP)”, “e.g. 0.1” for “e.g. 2”, “the MMP-13” for “the MMP-2”

The target in another experiment is T4, MMP-7 (Homo sapiens, UniProt P09237).
T4 construct: purchased R&D Systems 907-MP
T4 sequence (P09237 95-267): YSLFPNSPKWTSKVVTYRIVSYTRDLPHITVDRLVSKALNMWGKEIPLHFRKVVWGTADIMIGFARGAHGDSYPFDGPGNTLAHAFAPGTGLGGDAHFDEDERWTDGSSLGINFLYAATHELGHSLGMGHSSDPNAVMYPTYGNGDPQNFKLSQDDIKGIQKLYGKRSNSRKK
The experiment is described as follows: In vitro MMP-7 inhibition test. To be noted: human MMP-7.
Text: as §1
as §2, with “Recombinant MMP-7 (from R&D” for “Recombinant MMP-2 (R&D”, “Systems, 907-MP)” for “Systems, 902-MP)”, “e.g. 0.5” for “e.g. 2”, “the MMP-7” for “the MMP-2”

T2 sequence (P14780 107-707 limits assumed): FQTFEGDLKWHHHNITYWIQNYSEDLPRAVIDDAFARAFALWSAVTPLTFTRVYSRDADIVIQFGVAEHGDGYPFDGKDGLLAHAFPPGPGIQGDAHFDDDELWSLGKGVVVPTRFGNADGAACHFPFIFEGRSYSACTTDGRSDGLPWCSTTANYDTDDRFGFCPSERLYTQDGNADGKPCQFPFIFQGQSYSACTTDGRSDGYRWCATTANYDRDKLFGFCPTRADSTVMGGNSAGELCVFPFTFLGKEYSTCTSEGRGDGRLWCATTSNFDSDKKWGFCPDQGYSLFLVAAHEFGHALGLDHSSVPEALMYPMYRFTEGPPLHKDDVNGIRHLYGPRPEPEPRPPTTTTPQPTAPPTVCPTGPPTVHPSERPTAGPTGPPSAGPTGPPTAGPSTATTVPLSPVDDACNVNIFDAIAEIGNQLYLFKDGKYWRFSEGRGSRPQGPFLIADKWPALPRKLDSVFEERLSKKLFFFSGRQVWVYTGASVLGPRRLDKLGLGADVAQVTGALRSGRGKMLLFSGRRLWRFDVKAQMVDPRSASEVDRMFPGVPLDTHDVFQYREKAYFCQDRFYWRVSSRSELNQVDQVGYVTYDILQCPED

In the case of `CCCOc1ccc2cc(C(=O)CC(CCn3nnc4ccccc4c3=O)C(=O)O)oc2c1` (racemic) [Example 58, (+/−)-4-Oxo-2-[2-(4-oxo-1,2,3-benzotriazin-3(4H)-yl)ethyl]-4-(6-propoxy-1-benzofur-2-yl)butanoic acid], the IC50 is 10000 nM against MMP-2, 10000 nM on MMP-9, more than 40000 nM at MMP-13 and more than 40000 nM at MMP-7.
As to `CCCCCCOc1ccc2c(C(=O)CC(CCn3nnc4ccccc4c3=O)C(=O)O)coc2c1` (single isomer, unassigned; (+)) [Example 100, (+)-4-[6-(Hexyloxy)-1-benzofur-3-yl]-4-oxo-2-[2-(4-oxo-1,2,3-benzotriazin-3(4H)-yl)ethyl]butanoic acid], the IC50 is 140 nM against MMP-2, 74 nM at MMP-9, 140 nM against MMP-13 and more than 40000 nM against MMP-7.
Consider `O=C(O)[C@H]1[C@H](Cn2nnc3ccc(C(F)(F)F)cc3c2=O)CC[C@@H]1C(=O)c1cc2cc(OCCc3ccccc3)ccc2o1` (racemic) [Example 157, (+/−)-(1RS,2SR,5RS)-2-{[4-Oxo-6-(trifluoromethyl)-1,2,3-benzotriazin-3(4H)-yl]methyl}-5-{[5-(2-phenylethoxy)-1-benzofur-2-yl]carbonyl}cyclopentanecarboxylic acid (racemate)], for which the IC50 came out at 880 nM on MMP-2, 190 nM on MMP-9, 290 nM on MMP-13 and 160 nM against MMP-7.
Regarding `O=C(CC(CCn1nnc2ccccc2c1=O)C(=O)O)c1coc2cc(OCC3CCCC3)ccc12` (single isomer, unassigned; (+)) [Example 80, (+)-4-[6-(Cyclopentylmethoxy)-1-benzofur-3-yl]-4-oxo-2-[2-(4-oxo-1,2,3-benzotriazin-3(4H)-yl)ethyl]butanoic acid], the IC50 against MMP-2 is 490 nM; against MMP-9 it was 280 nM; at MMP-13 it was 3600 nM; at MMP-7, more than 40000 nM.
Take `CCCCCOc1ccc2cc(C(=O)CC(CCn3nnc4ccccc4c3=O)C(=O)O)sc2c1` (racemic) [Example 118, (+/−)-4-Oxo-2-[2-(4-oxo-1,2,3-benzotriazin-3(4H)-yl)ethyl]-4-[6-(pentyloxy)-1-benzothiophen-2-yl]butanoic acid]: the IC50 against MMP-2 was 350 nM; against MMP-9 it was 1200 nM; against MMP-13, 1100 nM; at MMP-7, 30000 nM.
For `O=C(C[C@H](CCn1nnc2ccccc2c1=O)C(=O)O)c1noc2cc(OCC3CCOCC3)ccc12` (single isomer, unassigned; enantiomer 2) [Example 135], in that order: 270 nM, 1700 nM, 1500 nM and more than 40000 nM.
For `CCCCCCCOc1ccc2oc(C(=O)CC(CCn3nnc4ccccc4c3=O)C(=O)O)cc2c1` (racemic) [Example 31, (+/−)-4-[5-(Heptyloxy)-1-benzofur-2-yl]-4-oxo-2-[2-(4-oxo-1,2,3-benzotriazin-3(4H)-yl)ethyl]butanoic acid], in that order: 4400 nM, 9700 nM, 5100 nM and more than 40000 nM.
For `O=C(CC(CCn1nnc2ccccc2c1=O)C(=O)O)c1cc2cc(OCCCc3ccccc3)ccc2o1` (racemic) [Example 37, (+/−)-4-Oxo-2-[2-(4-oxo-1,2,3-benzotriazin-3(4H)-yl)ethyl]-4-[5-(3-phenylpropoxy)-1-benzofur-2-yl]butanoic acid], in that order: 3300 nM, 17000 nM, 5200 nM and more than 40000 nM.
Take `O=C(O)[C@@H]1[C@@H](Cn2nnc3ccc(C(F)(F)F)cc3c2=O)CC[C@H]1C(=O)c1cc2cc(OCCc3ccccc3)ccc2o1` (single isomer, unassigned; enantiomer 2) [Example 159, (+)-(1RS,2SR,5RS)-2-{[4-Oxo-6-(trifluoromethyl)-1,2,3-benzotriazin-3(4H)-yl]methyl}-5-{[5-(2-phenylethoxy)-1-benzofur-2-yl]carbonyl}cyclopentanecarboxylic acid (enantiomer 2)]: the IC50 at MMP-2 came out at 1700 nM; against MMP-9, 680 nM; at MMP-13, 660 nM; on MMP-7, 300 nM.
For `NC(=O)c1cccc(COc2ccc3oc(C(=O)CC(CCn4nnc5ccccc5c4=O)C(=O)O)cc3c2)c1` (single isomer, unassigned; (+)) [Example 34, (+)-4-{5-[(3-Carbamoylbenzyl)oxy]-1-benzofur-2-yl}-4-oxo-2-[2-(4-oxo-1,2,3-benzotriazin-3(4H)-yl)ethyl]butanoic acid], in that order: 490 nM, 38000 nM, 1600 nM and 25000 nM.
In the case of `O=C(CC(CCn1nnc2ccccc2c1=O)C(=O)O)c1noc2cc(OCc3ccccc3)ccc12` (racemic) [Example 145, (+/−)-4-[6-(Benzyloxy)-1,2-benzoxazol-3-yl]-4-oxo-2-[2-(4-oxo-1,2,3-benzotriazin-3(4H)-yl)ethyl]butanoic acid], the IC50 at MMP-2 is 430 nM; on MMP-9 it was 170 nM; on MMP-13 it was 1500 nM; against MMP-7 it was more than 40000 nM.
For `O=C(CC(CCn1nnc2ccccc2c1=O)C(=O)O)c1noc2cc(OCc3ccc(F)cc3)ccc12` (racemic) [Example 136, (+/−)-4-{6-[(4-Fluorobenzyl)oxy]-1,2-benzoxazol-3-yl}-4-oxo-2-[2-(4-oxo-1,2,3-benzotriazin-3(4H)-yl)ethyl]butanoic acid], in that order: 320 nM, 190 nM, 970 nM and more than 40000 nM.
